From patent US11208412B2 (DAEGU-GYEONGBUK MEDICAL INNOVATION FOUNDATION, priority 2017, dated 2021)

Experiments:
Assay in all cases: Kinase selectivity, DiscoverX scanMAX Kinase assay panel (% control)
Type in all cases: binding
[1] = target: T1, kinases of the scanMAX Kinase assay panel (Homo sapiens, UniProt P00533, L861Q); conditions: EGFR(L861Q); 1 uM
T1 construct: purchased DiscoverX Co. (contract measurement) scanMAX Kinase assay panel
Outline: (§1)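 Each enzyme is treated with drug at 1 uM in DMSO, then signal is scaled between a positive control (0%) and DMSO (100%) to give % control. Kinases with % control under 35% are scored as inhibited.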

[2] = target: T2, kinases of the scanMAX Kinase assay panel (Homo sapiens, UniProt Q6PHR2); conditions: kinase ULK3; 1 uM in DMSO
T2 construct: purchased DiscoverX Co. (contract measurement) scanMAX Kinase assay panel
T2 sequence (Q6PHR2 1-472): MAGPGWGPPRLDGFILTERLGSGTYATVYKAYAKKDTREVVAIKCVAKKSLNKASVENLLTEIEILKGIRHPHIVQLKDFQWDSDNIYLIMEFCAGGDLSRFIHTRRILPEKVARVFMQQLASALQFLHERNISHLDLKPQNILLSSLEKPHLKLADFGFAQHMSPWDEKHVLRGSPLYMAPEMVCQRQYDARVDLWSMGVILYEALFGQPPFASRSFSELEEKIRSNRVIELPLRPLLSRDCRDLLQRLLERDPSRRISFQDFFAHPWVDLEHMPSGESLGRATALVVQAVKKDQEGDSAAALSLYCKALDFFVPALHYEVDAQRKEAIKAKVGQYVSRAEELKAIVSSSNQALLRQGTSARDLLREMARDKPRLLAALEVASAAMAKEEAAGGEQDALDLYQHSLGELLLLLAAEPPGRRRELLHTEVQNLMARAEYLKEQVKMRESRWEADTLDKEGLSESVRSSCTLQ
Outline: as §1

[3] = target: T3, kinases of the scanMAX Kinase assay panel (Homo sapiens, UniProt P31751); conditions: AKT2; 1 uM
T3 construct: purchased DiscoverX Co. (contract measurement) scanMAX Kinase assay panel
T3 sequence (P31751 whole entry): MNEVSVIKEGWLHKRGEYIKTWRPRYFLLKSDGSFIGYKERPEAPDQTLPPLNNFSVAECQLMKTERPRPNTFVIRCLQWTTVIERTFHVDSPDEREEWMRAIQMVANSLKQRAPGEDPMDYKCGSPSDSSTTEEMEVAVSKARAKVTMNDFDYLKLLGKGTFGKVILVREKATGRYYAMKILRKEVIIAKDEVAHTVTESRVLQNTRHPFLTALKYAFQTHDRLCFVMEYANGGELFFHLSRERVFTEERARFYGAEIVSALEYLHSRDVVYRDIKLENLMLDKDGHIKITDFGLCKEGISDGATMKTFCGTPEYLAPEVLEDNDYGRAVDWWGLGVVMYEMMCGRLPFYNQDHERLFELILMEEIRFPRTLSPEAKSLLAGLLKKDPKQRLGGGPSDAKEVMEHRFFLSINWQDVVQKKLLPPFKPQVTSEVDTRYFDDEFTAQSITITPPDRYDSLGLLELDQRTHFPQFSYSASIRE
Outline: as §1

[4] = target: T4, kinases of the scanMAX Kinase assay panel (Homo sapiens, UniProt Q6ZN16); conditions: MAP3K15; 1 uM
T4 construct: purchased DiscoverX Co. (contract measurement) scanMAX Kinase assay panel
T4 sequence (Q6ZN16 1-1313): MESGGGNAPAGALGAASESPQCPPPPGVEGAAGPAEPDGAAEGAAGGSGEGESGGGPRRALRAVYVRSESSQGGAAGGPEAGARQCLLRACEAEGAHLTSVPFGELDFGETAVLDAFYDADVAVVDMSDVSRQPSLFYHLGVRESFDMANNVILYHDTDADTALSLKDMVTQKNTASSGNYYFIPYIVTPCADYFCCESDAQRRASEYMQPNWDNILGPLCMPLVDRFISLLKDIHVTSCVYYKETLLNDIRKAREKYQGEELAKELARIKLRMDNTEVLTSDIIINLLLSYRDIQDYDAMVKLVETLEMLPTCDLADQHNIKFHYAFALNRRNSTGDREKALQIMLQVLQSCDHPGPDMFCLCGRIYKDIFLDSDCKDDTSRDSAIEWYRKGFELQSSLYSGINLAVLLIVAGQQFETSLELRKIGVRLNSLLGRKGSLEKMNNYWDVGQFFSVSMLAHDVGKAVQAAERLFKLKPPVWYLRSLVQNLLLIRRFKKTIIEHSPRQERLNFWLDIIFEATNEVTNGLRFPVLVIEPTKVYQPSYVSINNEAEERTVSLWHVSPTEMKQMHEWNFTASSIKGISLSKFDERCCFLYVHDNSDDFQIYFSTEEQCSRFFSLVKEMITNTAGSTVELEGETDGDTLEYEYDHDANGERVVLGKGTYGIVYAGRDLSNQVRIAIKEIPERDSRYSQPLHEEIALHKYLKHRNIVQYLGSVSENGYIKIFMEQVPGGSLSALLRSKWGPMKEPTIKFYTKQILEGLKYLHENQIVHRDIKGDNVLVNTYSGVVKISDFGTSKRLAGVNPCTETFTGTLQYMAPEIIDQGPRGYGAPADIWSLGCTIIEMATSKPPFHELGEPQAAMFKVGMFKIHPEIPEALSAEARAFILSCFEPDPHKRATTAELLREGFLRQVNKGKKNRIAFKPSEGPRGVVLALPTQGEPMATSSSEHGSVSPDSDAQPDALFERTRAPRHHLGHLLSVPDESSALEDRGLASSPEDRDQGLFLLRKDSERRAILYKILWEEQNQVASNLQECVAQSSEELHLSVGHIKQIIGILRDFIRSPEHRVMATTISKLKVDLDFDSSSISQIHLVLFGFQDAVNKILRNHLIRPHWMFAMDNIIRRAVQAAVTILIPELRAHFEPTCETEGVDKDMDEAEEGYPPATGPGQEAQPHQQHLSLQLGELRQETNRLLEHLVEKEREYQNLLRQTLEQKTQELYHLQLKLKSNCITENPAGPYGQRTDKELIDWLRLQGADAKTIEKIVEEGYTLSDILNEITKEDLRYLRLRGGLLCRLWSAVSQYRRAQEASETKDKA
Outline: as §1

[5] = target: T5, kinases of the scanMAX Kinase assay panel (Plasmodium falciparum, UniProt P61075); conditions: PFPK5(P. falciparum); 1 uM
T5 construct: purchased DiscoverX Co. (contract measurement) scanMAX Kinase assay panel
T5 sequence (P61075 whole entry): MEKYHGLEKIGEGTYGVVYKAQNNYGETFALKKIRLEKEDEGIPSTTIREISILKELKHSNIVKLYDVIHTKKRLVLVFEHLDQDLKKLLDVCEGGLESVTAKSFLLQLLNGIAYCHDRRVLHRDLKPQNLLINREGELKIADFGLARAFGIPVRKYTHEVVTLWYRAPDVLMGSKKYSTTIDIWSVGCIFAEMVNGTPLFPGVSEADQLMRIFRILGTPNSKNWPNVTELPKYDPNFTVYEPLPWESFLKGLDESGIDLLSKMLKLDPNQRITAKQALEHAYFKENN
Outline: as §1

T1 sequence (P00533 25-1210 L861Q): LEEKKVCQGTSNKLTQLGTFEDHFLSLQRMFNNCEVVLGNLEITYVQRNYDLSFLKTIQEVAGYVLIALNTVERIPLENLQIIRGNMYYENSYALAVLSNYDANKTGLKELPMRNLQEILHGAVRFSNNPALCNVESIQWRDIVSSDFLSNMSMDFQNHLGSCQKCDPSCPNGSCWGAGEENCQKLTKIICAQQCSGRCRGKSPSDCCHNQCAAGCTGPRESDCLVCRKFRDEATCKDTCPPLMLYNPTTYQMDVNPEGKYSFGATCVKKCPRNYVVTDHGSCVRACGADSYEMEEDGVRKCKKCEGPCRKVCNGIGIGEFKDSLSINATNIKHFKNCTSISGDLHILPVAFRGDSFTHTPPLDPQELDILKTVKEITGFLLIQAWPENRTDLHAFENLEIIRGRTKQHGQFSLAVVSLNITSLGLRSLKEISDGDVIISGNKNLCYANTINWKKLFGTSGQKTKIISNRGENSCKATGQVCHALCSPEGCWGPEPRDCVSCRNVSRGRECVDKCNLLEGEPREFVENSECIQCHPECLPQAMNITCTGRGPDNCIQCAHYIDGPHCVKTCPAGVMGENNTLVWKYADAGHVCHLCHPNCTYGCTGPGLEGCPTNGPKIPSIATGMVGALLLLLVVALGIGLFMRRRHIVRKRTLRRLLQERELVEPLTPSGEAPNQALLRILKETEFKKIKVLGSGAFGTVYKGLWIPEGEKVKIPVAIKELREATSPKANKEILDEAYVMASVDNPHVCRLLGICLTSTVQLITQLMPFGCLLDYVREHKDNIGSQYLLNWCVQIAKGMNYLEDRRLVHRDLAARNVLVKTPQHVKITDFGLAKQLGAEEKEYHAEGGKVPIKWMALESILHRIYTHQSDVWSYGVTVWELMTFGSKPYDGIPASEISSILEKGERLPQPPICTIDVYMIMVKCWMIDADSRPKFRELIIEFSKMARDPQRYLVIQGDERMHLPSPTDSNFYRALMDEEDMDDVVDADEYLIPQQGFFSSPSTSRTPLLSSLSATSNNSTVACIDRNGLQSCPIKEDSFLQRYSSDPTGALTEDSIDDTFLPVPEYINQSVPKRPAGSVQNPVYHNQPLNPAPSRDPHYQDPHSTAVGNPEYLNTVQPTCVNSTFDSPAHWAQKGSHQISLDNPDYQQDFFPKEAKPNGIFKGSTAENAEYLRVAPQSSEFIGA

| Structure (SMILES) | remaining binding at 1 µM [1] [%] | remaining binding at 1 µM [2] [%] | remaining binding at 1 µM [3] [%] | remaining binding at 1 µM [4] [%] | remaining binding at 1 µM [5] [%] |
| --- | --- | --- | --- | --- | --- |
| CNc1nc(Nc2ccc(C(=O)N3CCOCC3)cc2OC)nc2[nH]cc(C#N)c12 [Example 1, 2-((2-methoxy-4-(morpholine-4-carbonyl)phenyl)amino)-4-(methylamino)-7H-pyrrolo[2,3-d]pyrimidine-5-carbonitrile] | 100 | 62 | 86 | 35 | 76 |
| CC1(Nc2nc(Nc3cnn([C@H]4CCN(C5COC5)C[C@@H]4F)c3Cl)nc3[nH]cc(C#N)c23)CC1 [Example 52, 2-((5-chloro-1-((3S,4S)-3-fluoro-1-(oxetane-3-yl)piperidine-4-yl)-1H-pyrazole-4-yl)amino)((1-methylcyclopropyl)amino)-7H-pyrrolo[2,3-d]pyrimidine-5-carbonitrile] | 53 | 0.2 | 100 | 27 | 100 |
| CCNc1nc(Nc2ccc(C(=O)N3CCC(N4CCOCC4)CC3)cc2OC)nc2[nH]cc(C(F)(F)F)c12 [Example 104, (4-((4-(ethylamino)-5-(trifluoromethyl)-7H-pyrrolo[2,3-d]pyrimidine-2-yl)amino)-3-methoxyphenyl)(4-morpholinopiperidine-1-yl)methanone] | 99 | 100 | 94 | 61 | 100 |
